We go through 18 compounds from ChEMBL document CHEMBL5046241, “The novel therapeutic strategy of vilazodone-donepezil chimeras as potent triple-target ligands for the potential treatment of Alzheimer's disease with comorbid depression” (Eur J Med Chem, 2022).

For data set [1], the target named is 5-hydroxytryptamine receptor 1B (Homo sapiens, UniProt P28222).
Description: Agonist activity at 5-HT1B receptor (unknown origin)
The target in data set [2] is Sodium-dependent serotonin transporter (Homo sapiens, UniProt P31645). It counts as cell-based, HEK293.
Data set [3] addresses Cholinesterase (Mus musculus, UniProt Q03311).
Description: Inhibition of BuChE in mouse serum using butyrylthiocholine iodide as substrate incubated for 20 mins by Ellman's method
Data set [4] concerns the target T1, 5-hydroxytryptamine receptor 1A (Homo sapiens, UniProt P08908).
T1 sequence (P08908 whole entry): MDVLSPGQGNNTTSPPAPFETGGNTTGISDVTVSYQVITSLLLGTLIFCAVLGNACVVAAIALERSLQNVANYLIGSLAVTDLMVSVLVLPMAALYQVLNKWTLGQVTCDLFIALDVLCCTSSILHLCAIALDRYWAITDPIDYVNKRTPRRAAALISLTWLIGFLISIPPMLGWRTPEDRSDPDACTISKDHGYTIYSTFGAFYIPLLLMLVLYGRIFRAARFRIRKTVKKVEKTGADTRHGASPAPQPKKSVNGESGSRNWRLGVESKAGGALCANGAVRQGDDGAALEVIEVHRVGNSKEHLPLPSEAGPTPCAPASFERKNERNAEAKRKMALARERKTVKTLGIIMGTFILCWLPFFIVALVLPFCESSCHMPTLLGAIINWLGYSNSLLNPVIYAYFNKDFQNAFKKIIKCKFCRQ
Description: Agonist activity at human 5-HT1A receptor expressed in HEK293 cells incubated for 60 mins by Eu-cAMP tracer based LANCE ultra cAMP assay

Data set [5] in a line: in vitro. Particulars: PAMPA.
Description: Permeability of compound by PAMPA-BBB assay
Data set [6] has as its target T2, Acetylcholinesterase (Mus musculus, UniProt P21836).
T2 sequence (P21836 whole entry): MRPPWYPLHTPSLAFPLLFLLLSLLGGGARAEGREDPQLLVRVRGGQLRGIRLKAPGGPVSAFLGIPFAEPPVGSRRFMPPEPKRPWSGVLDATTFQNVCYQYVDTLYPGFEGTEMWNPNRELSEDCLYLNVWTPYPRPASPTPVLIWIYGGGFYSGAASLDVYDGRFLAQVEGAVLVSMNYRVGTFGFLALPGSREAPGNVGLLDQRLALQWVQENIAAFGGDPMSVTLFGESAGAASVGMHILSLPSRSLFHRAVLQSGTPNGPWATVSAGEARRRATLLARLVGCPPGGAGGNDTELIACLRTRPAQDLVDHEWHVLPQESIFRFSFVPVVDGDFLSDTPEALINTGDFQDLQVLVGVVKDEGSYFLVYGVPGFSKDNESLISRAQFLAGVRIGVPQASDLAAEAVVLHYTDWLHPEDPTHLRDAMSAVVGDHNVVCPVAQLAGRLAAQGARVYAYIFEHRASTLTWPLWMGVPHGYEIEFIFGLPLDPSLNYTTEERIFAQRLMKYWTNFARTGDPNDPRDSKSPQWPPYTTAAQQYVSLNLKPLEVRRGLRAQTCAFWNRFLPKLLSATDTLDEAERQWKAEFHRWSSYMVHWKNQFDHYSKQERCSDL
In words: biochemical.
Description: Inhibition of AChE in mouse cortical homogenate using acetylthiocholine iodide as substrate incubated for 20 mins by Ellman's method

The target of data set [7] is Voltage-gated inwardly rectifying potassium channel KCNH2 (Homo sapiens, UniProt Q12809).
Chain of Voltage-gated inwardly rectifying potassium channel KCNH2 (Q12809 whole entry): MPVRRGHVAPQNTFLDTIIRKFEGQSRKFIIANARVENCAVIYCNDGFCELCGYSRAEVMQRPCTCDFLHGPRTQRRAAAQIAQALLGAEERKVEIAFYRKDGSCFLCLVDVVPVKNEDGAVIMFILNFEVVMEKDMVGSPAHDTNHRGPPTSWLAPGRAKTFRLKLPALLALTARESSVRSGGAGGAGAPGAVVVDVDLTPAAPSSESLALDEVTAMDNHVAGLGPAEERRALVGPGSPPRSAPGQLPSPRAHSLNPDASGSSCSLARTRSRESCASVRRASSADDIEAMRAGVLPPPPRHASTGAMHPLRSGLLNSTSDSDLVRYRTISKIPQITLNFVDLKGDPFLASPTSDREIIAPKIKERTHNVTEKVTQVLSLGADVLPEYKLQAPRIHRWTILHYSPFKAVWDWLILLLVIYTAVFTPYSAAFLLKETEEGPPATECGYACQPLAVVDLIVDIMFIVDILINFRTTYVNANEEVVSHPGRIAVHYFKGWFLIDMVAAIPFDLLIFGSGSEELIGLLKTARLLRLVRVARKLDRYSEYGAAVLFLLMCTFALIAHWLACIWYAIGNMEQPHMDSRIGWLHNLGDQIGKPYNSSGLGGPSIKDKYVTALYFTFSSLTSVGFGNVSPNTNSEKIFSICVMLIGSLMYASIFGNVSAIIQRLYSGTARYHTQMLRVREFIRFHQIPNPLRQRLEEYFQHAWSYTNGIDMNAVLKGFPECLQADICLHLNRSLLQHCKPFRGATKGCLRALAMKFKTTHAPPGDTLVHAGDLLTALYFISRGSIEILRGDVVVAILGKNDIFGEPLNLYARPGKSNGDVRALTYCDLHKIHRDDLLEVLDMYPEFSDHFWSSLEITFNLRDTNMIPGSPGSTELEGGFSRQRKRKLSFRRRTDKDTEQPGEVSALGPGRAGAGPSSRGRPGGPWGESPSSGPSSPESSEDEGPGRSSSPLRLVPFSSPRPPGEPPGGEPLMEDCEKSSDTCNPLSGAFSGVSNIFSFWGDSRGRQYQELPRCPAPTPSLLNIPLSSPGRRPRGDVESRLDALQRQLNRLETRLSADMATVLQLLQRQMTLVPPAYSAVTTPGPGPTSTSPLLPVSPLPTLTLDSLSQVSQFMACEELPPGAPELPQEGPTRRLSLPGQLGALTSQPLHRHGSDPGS
Description: Inhibition of hERG expressed in CHO cells at -80 mV holding potential by automated patch clamp method
In data set [8] the target is Sodium-dependent noradrenaline transporter (Homo sapiens, UniProt P23975).
Chain of Sodium-dependent noradrenaline transporter (P23975 whole entry): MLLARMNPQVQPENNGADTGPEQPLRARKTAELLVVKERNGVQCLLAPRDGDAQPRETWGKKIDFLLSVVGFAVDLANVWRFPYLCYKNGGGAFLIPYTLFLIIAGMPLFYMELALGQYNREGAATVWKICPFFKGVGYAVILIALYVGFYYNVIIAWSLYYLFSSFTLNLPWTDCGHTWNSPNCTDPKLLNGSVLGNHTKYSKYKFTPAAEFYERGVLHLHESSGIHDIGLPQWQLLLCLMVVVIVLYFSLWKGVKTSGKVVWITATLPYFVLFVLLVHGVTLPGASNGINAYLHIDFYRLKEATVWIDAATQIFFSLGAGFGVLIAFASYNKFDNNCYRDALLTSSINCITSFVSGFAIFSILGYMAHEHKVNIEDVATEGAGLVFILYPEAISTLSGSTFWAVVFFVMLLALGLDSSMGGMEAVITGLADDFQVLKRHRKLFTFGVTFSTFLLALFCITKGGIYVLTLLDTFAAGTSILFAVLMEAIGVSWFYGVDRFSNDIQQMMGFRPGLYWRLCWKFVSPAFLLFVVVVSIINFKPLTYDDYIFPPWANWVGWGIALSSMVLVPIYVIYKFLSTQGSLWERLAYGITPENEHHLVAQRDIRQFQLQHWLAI
Description: Inhibition of norepinephrine transporter (unknown origin)
The target in data set [9] is Sodium-dependent dopamine transporter (Homo sapiens, UniProt Q01959).
Chain of Sodium-dependent dopamine transporter (Q01959 whole entry): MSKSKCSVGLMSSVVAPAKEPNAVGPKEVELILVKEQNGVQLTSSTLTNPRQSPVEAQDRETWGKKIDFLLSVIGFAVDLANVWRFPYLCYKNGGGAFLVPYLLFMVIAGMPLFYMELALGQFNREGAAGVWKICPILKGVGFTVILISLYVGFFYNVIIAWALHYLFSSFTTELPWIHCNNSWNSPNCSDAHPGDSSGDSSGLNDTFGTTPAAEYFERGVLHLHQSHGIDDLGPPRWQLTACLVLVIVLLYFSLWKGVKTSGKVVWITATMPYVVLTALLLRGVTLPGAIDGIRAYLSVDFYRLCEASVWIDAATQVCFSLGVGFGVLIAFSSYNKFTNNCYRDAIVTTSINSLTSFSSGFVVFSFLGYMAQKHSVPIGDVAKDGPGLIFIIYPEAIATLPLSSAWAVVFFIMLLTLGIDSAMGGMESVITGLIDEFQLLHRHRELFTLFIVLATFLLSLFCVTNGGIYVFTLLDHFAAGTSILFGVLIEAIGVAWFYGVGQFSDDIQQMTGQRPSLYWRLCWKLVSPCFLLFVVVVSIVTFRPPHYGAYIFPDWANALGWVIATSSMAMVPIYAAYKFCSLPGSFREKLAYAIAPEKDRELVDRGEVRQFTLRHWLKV
Description: Inhibition of dopamine transporter (unknown origin)
Data set [10] is described as follows: in vitro. Particulars: Sprague-Dawley, rat, microsomes.
Data set [11] in a line: in vitro. Particulars: Sprague-Dawley, rat, microsomes. The source holds these as a separate data set.
A short description of data set [12]: in vitro. Particulars: CD-1, mouse, microsomes.
A short description of data set [13]: in vitro. The note with it: CD-1, mouse, microsomes. This is another data set of the same source.
Data set [14] deals with T2, Acetylcholinesterase. In words: Inhibition of mouse AChE assessed as inhibition constant using acetylthiocholine iodide as substrate measured every 2 mins by lineweaver-burk plot analysis.
For data set [15], the target named is Acetylcholinesterase (Homo sapiens, UniProt P22303). The data set is described as follows: Inhibition of […] using acetylthiocholine iodide as substrate incubated for 20 mins by Ellman's method. Details: species or system Erythrocyte.
Chain of Acetylcholinesterase (Homo sapiens, UniProt P22303) (P22303 whole entry): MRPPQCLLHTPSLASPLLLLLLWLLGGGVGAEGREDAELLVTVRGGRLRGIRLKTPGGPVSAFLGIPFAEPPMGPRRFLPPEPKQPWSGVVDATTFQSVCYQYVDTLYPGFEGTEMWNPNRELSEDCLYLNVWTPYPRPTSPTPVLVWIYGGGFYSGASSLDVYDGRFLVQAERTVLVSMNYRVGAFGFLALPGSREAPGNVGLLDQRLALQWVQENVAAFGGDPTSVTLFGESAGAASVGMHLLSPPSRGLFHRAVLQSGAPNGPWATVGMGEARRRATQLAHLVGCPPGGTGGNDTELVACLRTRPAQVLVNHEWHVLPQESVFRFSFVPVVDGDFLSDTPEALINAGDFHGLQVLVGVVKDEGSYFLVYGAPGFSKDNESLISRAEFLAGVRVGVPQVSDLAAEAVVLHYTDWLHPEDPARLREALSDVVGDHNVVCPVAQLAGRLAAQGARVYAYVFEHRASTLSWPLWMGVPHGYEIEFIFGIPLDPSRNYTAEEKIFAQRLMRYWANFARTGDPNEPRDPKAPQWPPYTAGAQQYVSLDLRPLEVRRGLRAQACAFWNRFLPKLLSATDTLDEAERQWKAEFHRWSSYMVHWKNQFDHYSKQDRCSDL

Chain of Cholinesterase (Q03311 whole entry): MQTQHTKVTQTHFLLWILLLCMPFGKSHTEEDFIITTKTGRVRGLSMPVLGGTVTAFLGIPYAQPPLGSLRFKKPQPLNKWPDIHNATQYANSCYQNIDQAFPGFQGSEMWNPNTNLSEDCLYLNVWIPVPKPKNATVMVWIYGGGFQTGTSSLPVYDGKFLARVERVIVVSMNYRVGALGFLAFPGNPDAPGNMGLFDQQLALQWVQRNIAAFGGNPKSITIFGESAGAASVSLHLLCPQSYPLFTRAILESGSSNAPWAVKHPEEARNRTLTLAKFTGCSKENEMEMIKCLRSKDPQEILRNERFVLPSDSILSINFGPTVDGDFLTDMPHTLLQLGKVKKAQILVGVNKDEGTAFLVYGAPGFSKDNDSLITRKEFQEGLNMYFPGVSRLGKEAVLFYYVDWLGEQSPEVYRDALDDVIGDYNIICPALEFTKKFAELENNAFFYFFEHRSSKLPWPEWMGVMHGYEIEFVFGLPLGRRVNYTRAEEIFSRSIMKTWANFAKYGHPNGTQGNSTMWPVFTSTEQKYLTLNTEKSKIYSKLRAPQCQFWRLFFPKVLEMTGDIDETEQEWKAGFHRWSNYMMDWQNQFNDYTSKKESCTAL
Chain of 5-hydroxytryptamine receptor 1B (P28222 whole entry): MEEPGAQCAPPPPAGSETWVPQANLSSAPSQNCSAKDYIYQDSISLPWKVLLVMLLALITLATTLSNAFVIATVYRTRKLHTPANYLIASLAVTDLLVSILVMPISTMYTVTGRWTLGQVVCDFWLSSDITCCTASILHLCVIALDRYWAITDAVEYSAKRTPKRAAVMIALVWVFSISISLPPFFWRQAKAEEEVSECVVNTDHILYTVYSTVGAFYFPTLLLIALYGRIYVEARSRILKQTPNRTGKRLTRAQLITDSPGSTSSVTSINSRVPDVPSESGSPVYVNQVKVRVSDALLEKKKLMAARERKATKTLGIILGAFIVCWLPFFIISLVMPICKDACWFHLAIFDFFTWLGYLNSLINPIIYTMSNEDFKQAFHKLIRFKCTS
Chain of Sodium-dependent serotonin transporter (P31645 whole entry): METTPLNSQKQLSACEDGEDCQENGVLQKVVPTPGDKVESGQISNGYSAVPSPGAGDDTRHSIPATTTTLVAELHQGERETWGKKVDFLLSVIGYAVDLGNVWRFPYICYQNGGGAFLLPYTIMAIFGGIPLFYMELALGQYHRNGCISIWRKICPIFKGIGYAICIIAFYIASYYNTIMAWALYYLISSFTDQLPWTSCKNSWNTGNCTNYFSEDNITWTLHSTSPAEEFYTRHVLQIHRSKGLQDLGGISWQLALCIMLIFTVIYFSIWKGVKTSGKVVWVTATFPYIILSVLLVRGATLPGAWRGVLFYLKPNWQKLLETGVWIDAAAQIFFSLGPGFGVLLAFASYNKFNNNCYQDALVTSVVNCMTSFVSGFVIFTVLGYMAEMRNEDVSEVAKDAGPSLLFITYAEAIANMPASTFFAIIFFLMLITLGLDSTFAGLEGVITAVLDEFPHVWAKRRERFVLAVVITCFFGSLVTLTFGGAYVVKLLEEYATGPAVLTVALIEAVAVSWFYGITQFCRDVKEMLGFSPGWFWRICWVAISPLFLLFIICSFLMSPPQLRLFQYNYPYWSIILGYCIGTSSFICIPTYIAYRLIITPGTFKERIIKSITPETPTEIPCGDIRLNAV

`CN1CCC[C@@H]1Cc1c[nH]c2ccc(CCS(=O)(=O)c3ccccc3)cc12` showed an EC50 in data set [1] of 0.0116 µM.
On to `N#Cc1ccc2[nH]cc(CN3CCN(c4ccc5c(c4)CC(CC4CCN(Cc6ccccc6)CC4)C5=O)CC3)c2c1` (stereo unspecified), for which the IC50 in data set [2] was found to be 0.0159 µM; in data set [3], 0.498 µM; in data set [6], 0.00668 µM. In data set [4], this compound had an EC50 of over 1 µM. In data set [5], this compound displayed a Papp of 36.1 nm/s.
As to `N#Cc1ccc2[nH]cc(CCN3CCN(c4ccc(C(=O)CCC5CCN(Cc6ccsc6)CC5)cc4)CC3)c2c1`, the values for the IC50 in data set [2], in data set [3] and in [6] were 0.0335 µM, 1.86 µM and 0.00256 µM, respectively. This compound came in with an EC50 in data set [4] of over 1 µM. For the same compound, the Papp in data set [5] was found to be 47.7 nm/s.
For `N#Cc1ccc2[nH]cc(CCCCN3CCN(c4ccc(C(=O)CCC5CCN(Cc6ccsc6)CC5)cc4)CC3)c2c1` the same measures were 0.0201 µM, 0.883 µM, 0.00301 µM, 0.0666 µM and 46.2 nm/s.
As to `N#Cc1ccc2[nH]cc(CCN3CCN(c4ccc5c(c4)CC(CC4CCN(Cc6ccccc6)CC4)C5=O)CC3)c2c1` (stereo unspecified), the IC50 in [2] worked out at 0.00881 µM; in [3], 0.638 µM; in data set [6] it was 0.0087 µM. This compound had a concentration giving a half-maximal response (EC50) in data set [4] of over 1 µM. In [5], this compound came in with a Papp of 41.6 nm/s.
For `N#Cc1ccc2[nH]cc(CCCCN3CCN(c4ccc(C(=O)CCC5CCN(Cc6ccoc6)CC5)cc4)CC3)c2c1` the same measures were 0.0357 µM, 2.73 µM, 0.00895 µM, 0.019 µM and 46.8 nm/s.
In the case of `N#Cc1ccc2[nH]cc(CCCCN3CCN(c4ccc5oc(C(N)=O)cc5c4)CC3)c2c1` [VILAZODONE], the 50% inhibitory concentration (IC50) in data set [7] was 5.55 µM; in data set [8] it was 0.158 µM; in [9] it was 0.295 µM; in data set [6], 21.3 µM. In addition, the 50% effective concentration (EC50) in data set [1] was over 30 µM. The same compound registered a Papp in [5] of 108 nm/s. The half-life at […] in [10] amounted to 43.8 min; in data set [12], 39.8 min. For the same compound, the microsomal CLint at […] in [11] came out at 31.6 µL/min/mg; in data set [13], 30.1 µL/min/mg.
Consider `N#Cc1ccc2[nH]cc(CCCN3CCN(c4ccc(C(=O)CCC5CCN(Cc6ccccc6)CC5)cc4)CC3)c2c1`, for which the IC50 in data set [2] came to 0.0399 µM; in data set [3], 1.49 µM; in [6] it was 0.00218 µM. Also, the EC50 in [4] came out at 0.0655 µM. The Papp in [5] stood at 43.8 nm/s.
For `N#Cc1ccc2[nH]cc(CN3CCN(c4ccc(C(=O)CCC5CCN(Cc6ccsc6)CC5)cc4)CC3)c2c1` the same measures were 0.0752 µM, 0.902 µM, 0.00235 µM, over 1 µM and 52.5 nm/s.
For `Cc1ccc2[nH]cc(CCCCN3CCN(c4ccc(C(=O)CCC5CCN(Cc6ccccc6)CC5)cc4)CC3)c2c1` the same measures were over 1 µM, 1.2 µM, 0.00228 µM, 0.279 µM and 25 nm/s.
Turning to `C[C@]12CC[C@H]3[C@@H](CCC4=CC(=O)CC[C@@]43C)[C@@H]1CC[C@@H]2O` [TESTOSTERONE], the microsomal CLint at […] was 597 µL/min/mg in data set [11] and 189 µL/min/mg in [13].
Consider `N#Cc1ccc2[nH]cc(CN3CCN(c4ccc(C(=O)CCC5CCN(Cc6ccccc6)CC5)cc4)CC3)c2c1`, for which the IC50 in [2] turned out to be 0.0545 µM; in data set [3], 0.979 µM; in data set [6], 0.00643 µM. In [4], this compound displayed an EC50 of over 1 µM. Moreover, the Papp in data set [5] was found to be 36.7 nm/s.
For `N#Cc1ccc2[nH]cc(CCCN3CCN(c4ccc5c(c4)CC(CC4CCN(Cc6ccccc6)CC4)C5=O)CC3)c2c1` (stereo unspecified) the same measures were 0.0184 µM, 0.551 µM, 0.00438 µM, 0.316 µM and 35.5 nm/s.
As to `N#Cc1ccc2[nH]cc(CCCCN3CCN(c4ccc(C(=O)CCC5CCN(Cc6ccccc6)CC5)cc4)CC3)c2c1`, the Ki in data set [14] amounted to 0.00116 µM. In addition, the IC50 in data set [2] was 0.0292 µM; in data set [15], 0.00058 µM; in data set [3] it was 2.18 µM; in [7], over 40 µM; in data set [9], 1.04 µM; in [6] it was 0.00229 µM. Also, the EC50 in [4] is 0.0586 µM; in data set [1] it was over 30 µM.
On to `COc1cc2c(cc1OC)C(=O)C(CC1CCN(Cc3ccccc3)CC1)C2` (stereo unspecified) [DONEPEZIL], for which the half-life at […] was over 145 min in [10] and 46 min in [12]. Further, the values for the intrinsic metabolic clearance (microsomal CLint) at […] in data set [11] and in data set [13] were under 9.6 µL/min/mg and 34.8 µL/min/mg, respectively.
Consider `N#Cc1ccc2[nH]cc(CCCCN3CCN(c4ccc(C(=O)CCC5CCN(Cc6cc[nH]c6)CC5)cc4)CC3)c2c1`, for which the values for the IC50 in data set [2], in [3] and in data set [6] were 0.00825 µM, 2 µM and 0.00394 µM, respectively. The compound also registered an EC50 in data set [4] of 0.0222 µM. This compound also yielded a Papp in data set [5] of 47.7 nm/s.
In the case of `N#Cc1ccc2[nH]cc(CN3CCN(c4ccc(C(=O)CCC5CCN(Cc6cc[nH]c6)CC5)cc4)CC3)c2c1`, the half-inhibitory concentration (IC50) in [2] amounted to 0.0121 µM; in data set [3], 1.15 µM; in data set [6], 0.00342 µM. The compound also yielded an EC50 in data set [4] of over 1 µM. In [5], this compound gave a Papp of 31.7 nm/s.
For `N#Cc1ccc2[nH]cc(CCCCN3CCN(c4ccc(C(=O)CCC5CCN(Cc6cccnc6)CC5)cc4)CC3)c2c1` the same measures were 0.0162 µM, 4.59 µM, 0.00798 µM, 0.022 µM and 44.3 nm/s.
